What was measured:
Assay type in all cases: in vivo, rat
Settings in all cases: 300 mg/Kg p.o.
[1] = test system: male rats (SPF); assay: Water immersion stress gastric mucosa damage test
Protocol: A water immersion stress gastric mucosa damage test was conducted on male rats (SPF) using the composite magnesium oxide particles obtained in Example 5. For comparison, magnesium oxide manufactured by Kyowa Chemical Industry Co., Ltd. was used.
(§1) administration route: oral administration applied dose: 5 mL/Kg administration means: administered by using a disposable injection cylinder and a sonde for oral administration administration time: administered 60 minutes before the preparation of a gastric mucosa damaged model
(§2) After about 24 hours of fasting, the rats were put into a stress cage (manufactured by Natsume Seisakusho Co., Ltd.), and the cage was immersed in a water tank at 23° C. 6 hours after that, the blood was removed from the rats to kill them under anesthesia with pentobarbital sodium (40 mg/Kg, i.p.), and the stomachs of these rats were extracted. 10 mL of a 1% formalin solution was injected into the stomachs to immerse them in the solution for 10 minutes or more. The stomachs were cut open along the greater curvature to measure the length (mm) of a damage by a stereomicroscope. The total of damages of each rat was taken as the damage coefficient of the rat.

[2] = test system: male rats (SPF); assay: Ethanol-inducted gastric mucosa damage test
Protocol: as §1, §2
An ethanol-inducted gastric mucosa damage test was conducted on male rats (SPF) by using the composite magnesium oxide particles obtained in Example 5. For comparison, magnesium oxide manufactured by Kyowa Chemical Industry Co., Ltd. was used.
After about 24 hours of fasting, 1 mL of ethanol (99.5%) was orally administered to each rat. […]

[3] = test system: male rats (SPF); assay: Indometacin-inducted gastric mucosa damage test
Protocol: as §1, §2
An indometacin-inducted gastric mucosa damage test was conducted on male rats (SPF) by using the composite magnesium oxide particles obtained in Example 5. For comparison, magnesium oxide manufactured by Kyowa Chemical Industry Co., Ltd. was used.
After about 24 hours of fasting, 30 mg/Kg of indometacin (15 mg/mL: suspended by using a 0.5% methylcellulose aqueous solution) was subcutaneously administered to each rat. […]

[4] = test system: male rats (SPF); assay: Aspirin-inducted gastric mucosa damage test
Protocol: as §1, §2
An aspirin-inducted gastric mucosa damage test was conducted on male rats (SPF) by using the composite magnesium oxide particles obtained in Example 5. For comparison, magnesium oxide manufactured by Kyowa Chemical Industry Co., Ltd. was used.
After about 24 hours of fasting, 125 mg/Kg of aspirin (62.5 mg/mL: suspended by using a methylcellulose aqueous solution) was orally administered to each rat twice every 2 hours. […]

[5] = test system: male rats (SPF); assay: Gastric ulceration test (acetic acid ulceration models)
Protocol: The influence of the composite magnesium oxide particles obtained in Example 3 upon gastric ulceration was investigated using male rats (SPF). For comparison, magnesium oxide particles (MgO) manufactured by Kyowa Chemical Industry Co., Ltd. were used. The rats were abdominally operated under anesthesia with pentobarbital sodium (10 mg/Kg, i.p.), 30 μL of 20% acetic acid was injected into the submucosal coat at the boundary between the body of stomach and the vestibular region of the pyloric from the serosal side to prepare acetic acid ulceration models. […] On the day following the last administration, the stomachs of the models were extracted under anesthesia with pentobarbital sodium (40 mg/Kg, i.p.) to measure the long diameter and short diameter (mm) of an ulcer.

With `[O]=[Mg]` [Comparative example, magnesium oxide] the “Damage coefficient (Lesions)” value ([1]; 60 min before, water immersion stress 23° C., 6 hours, 6 rats) was 18.1 ± 3.6 mm, the Inhibition ratio ([1]; water immersion stress) was 56% and the “Damage coefficient (Lesions)” value ([2]; 1 mL ethanol (99.5%) orally, 1 hour, 6 rats) was 25.5 ± 8.9 mm. The Inhibition ratio ([2]; ethanol-inducted) was 48%, the “Damage coefficient (Lesions)” value ([3]; indometacin 30 mg/Kg s.c., 5 hours, 6 rats) was 0.0 ± 0.0 mm and the Inhibition ratio ([3]; indometacin-inducted) was 100%. For the same compound, the “Damage coefficient (Lesions)” value ([4]; aspirin 125 mg/Kg orally twice, 4 hours after second, 6 rats) was 27.8 ± 4.3 mm, the Inhibition ratio ([4]; aspirin-inducted) was 43% and the “Inhibition ratio of gastric lesion” value [5] was 19%. For the same compound, the “Damage coefficient (Lesions area)” value ([5]; once each day for 10 days, 6 rats) was 5.2 ± 1.0 mm^2.
